Results published in ChEMBL document CHEMBL3832761, “MMV Pathogen Box Bioactivity Data” (2017).
≈ marks a conversion by molar mass, not a printed value.

Legend:
Type in all cases: functional
[1] = tested on: Mycobacterium tuberculosis; assay: AntiMycobacterium tuberculosis activity Non-Replicating form: Average MIC90 (uM)
[2] = tested on: Mycobacterium tuberculosis; assay: AntiMycobacterium tuberculosis activity 1-week GAST/Fe MIC (uM); conditions: 168 h
[3] = tested on: Mycobacterium tuberculosis; assay: AntiMycobacterium tuberculosis activity 2-week GAST/Fe MIC (uM); conditions: 336 h
[4] = tested on: Mycobacterium tuberculosis; assay: AntiMycobacterium tuberculosis activity 1-week 7H9/ADC/Tw MIC (uM); conditions: 168 h
[5] = tested on: Mycobacterium tuberculosis; assay: AntiMycobacterium tuberculosis activity 2-week 7H9/ADC/Tw MIC (uM); conditions: 336 h
[6] = tested on: Mycobacterium tuberculosis; assay: AntiMycobacterium tuberculosis activity 2-week Alamar Blue 7H9/ADC/Tw MIC (uM); conditions: 336 h
[7] = tested on: Mycobacterium tuberculosis; assay: AntiMycobacterium tuberculosis activity 1-week 7H9/glucose/BSA/Tx MIC (uM); conditions: 168 h
[8] = tested on: Mycobacterium tuberculosis; assay: AntiMycobacterium tuberculosis activity 2-week 7H9/glucose/BSA/Tx MIC (uM); conditions: 336 h
[9] = tested on: Mycobacterium tuberculosis; assay: AntiMycobacterium tuberculosis activity 1-week 7H9/DPPC/cholesterol/BSA/Tx MIC (uM); conditions: 168 h
[10] = tested on: Mycobacterium tuberculosis; assay: AntiMycobacterium tuberculosis activity 2-week 7H9/DPPC/cholesterol/BSA/Tx MIC (uM); conditions: 336 h
[11] = tested on: Mycobacterium tuberculosis; assay: AntiMycobacterium tuberculosis activity 1-week 7H9/cholesterol/BSA/Tx MIC (uM); conditions: 168 h
[12] = tested on: Mycobacterium tuberculosis; assay: AntiMycobacterium tuberculosis activity 2-week Alamar Blue 7H9/cholesterol/BSA/Tx MIC (uM); conditions: 336 h
[13] = tested on: Mycobacterium tuberculosis; assay: (§1) AntiMycobacterium tuberculosis activity day 10 in 7H9/2.5mM butyrate/pH6/0.1mM nitrite MIC90 (uM); conditions: 240 h
[14] = tested on: Mycobacterium tuberculosis; assay: AntiMycobacterium tuberculosis activity day 21 in 7H9/2.5mM butyrate/pH6/0.1mM nitrite MIC90 (uM); conditions: 504 h
[15] = tested on: Mycobacterium tuberculosis; assay: as §1; conditions: 240 h; remark: listed apart in the source
[16] = tested on: Mycobacterium tuberculosis; assay: AntiMycobacterium tuberculosis activity day 21 MIC99 in 7H9/2.5mM butyrate/pH6/0.1mM nitrite MIC99 (uM); conditions: 504 h
[17] = tested on: Mycobacterium tuberculosis; assay: AntiMycobacterium tuberculosis activity Replicating form: Average MIC90 (uM)
[18] = tested on: HepG2; assay: HepG2 CC50 (uM) Cytotoxicity; conditions: Homo sapiens

Row | Structure (SMILES) | MIC90 [1] | MIC [2] | MIC [3] | MIC [4] | MIC [5] | MIC [6] | MIC [7] | MIC [8] | MIC [9] | MIC [10] | MIC [11] | MIC [12] | MIC90 [13] | MIC90 [14] | MIC90 [15] | MIC [16] | MIC90 [17] | CC50 [18]
1 | O=C1O[C@@H](CO)CN1c1cc(F)c(C2=CCN(Cc3ccccc3)CC2)c(F)c1 | 19 µM (≈ 7.6 µg/mL) | 9.4 µM (≈ 3.76 µg/mL) | 9.4 µM (≈ 3.76 µg/mL) | 4.7 µM (≈ 1.88 µg/mL) | 4.7 µM (≈ 1.88 µg/mL) | 3.13 µM (≈ 1.25 µg/mL) | 4.7 µM (≈ 1.88 µg/mL) | 4.7 µM (≈ 1.88 µg/mL) | 9.4 µM (≈ 3.76 µg/mL) | 9.4 µM (≈ 3.76 µg/mL) | 4.7 µM (≈ 1.88 µg/mL) | 4.7 µM (≈ 1.88 µg/mL) | 50 µM (≈ 20 µg/mL) | 50 µM (≈ 20 µg/mL) | > 50 µM | > 50 µM | 11.6 µM (≈ 4.65 µg/mL) | 38.8 µM
2 | CCCn1c(CNc2ccccc2O)nc2ccccc21 | 7.04 µM (≈ 1.98 µg/mL) | 1.56 µM (≈ 0.439 µg/mL) | 1.56 µM (≈ 0.439 µg/mL) | 9.4 µM (≈ 2.64 µg/mL) | 9.4 µM (≈ 2.64 µg/mL) | 6.25 µM (≈ 1.76 µg/mL) | 12.5 µM (≈ 3.52 µg/mL) | 12.5 µM (≈ 3.52 µg/mL) | 6.25 µM (≈ 1.76 µg/mL) | 6.25 µM (≈ 1.76 µg/mL) | 6.25 µM (≈ 1.76 µg/mL) | 6.25 µM (≈ 1.76 µg/mL) | 3.12 µM (≈ 0.878 µg/mL) | 6.25 µM (≈ 1.76 µg/mL) | > 50 µM | > 50 µM | 12.7 µM (≈ 3.57 µg/mL) | 84.1 µM
3 | Nc1c2c(nc3sc4c(c13)CCCC4)CCCC2 | 94.6 µM (≈ 24.4 µg/mL) | 1.56 µM (≈ 0.403 µg/mL) | 2.3 µM (≈ 0.594 µg/mL) | 25 µM (≈ 6.46 µg/mL) | 37 µM (≈ 9.56 µg/mL) | 12.5 µM (≈ 3.23 µg/mL) | 19 µM (≈ 4.91 µg/mL) | 25 µM (≈ 6.46 µg/mL) | 12.5 µM (≈ 3.23 µg/mL) | 25 µM (≈ 6.46 µg/mL) | 12.5 µM (≈ 3.23 µg/mL) | 25 µM (≈ 6.46 µg/mL) | 50 µM (≈ 12.9 µg/mL) | 50 µM (≈ 12.9 µg/mL) | > 50 µM | > 50 µM | 52 µM (≈ 13.4 µg/mL) | 34.9 µM
4 | Cc1cc(Cl)ccc1NC(=O)CCc1ccc(S(=O)(=O)NCC(C)C)cc1 | 13.4 µM (≈ 5.49 µg/mL) | 2.3 µM (≈ 0.941 µg/mL) | 2.3 µM (≈ 0.941 µg/mL) | 4.7 µM (≈ 1.92 µg/mL) | 6.25 µM (≈ 2.56 µg/mL) | 6.25 µM (≈ 2.56 µg/mL) | 4.7 µM (≈ 1.92 µg/mL) | 6.25 µM (≈ 2.56 µg/mL) | 3.13 µM (≈ 1.28 µg/mL) | 3.13 µM (≈ 1.28 µg/mL) | 3.13 µM (≈ 1.28 µg/mL) | 6.25 µM (≈ 2.56 µg/mL) | > 50 µM | 25 µM (≈ 10.2 µg/mL) | > 50 µM | 50 µM (≈ 20.4 µg/mL) | 14.4 µM (≈ 5.87 µg/mL) | > 100 µM
5 | Cc1ccc2oc(-c3cc(NC(=O)Cc4ccccc4)ccc3Cl)nc2c1 | > 100 µM | 6.25 µM (≈ 2.36 µg/mL) | 9.4 µM (≈ 3.54 µg/mL) | 25 µM (≈ 9.42 µg/mL) | 25 µM (≈ 9.42 µg/mL) | 25 µM (≈ 9.42 µg/mL) | 25 µM (≈ 9.42 µg/mL) | 25 µM (≈ 9.42 µg/mL) | 12.5 µM (≈ 4.71 µg/mL) | 12.5 µM (≈ 4.71 µg/mL) | 25 µM (≈ 9.42 µg/mL) | 25 µM (≈ 9.42 µg/mL) | > 50 µM | > 50 µM | > 50 µM | > 50 µM | 3.58 µM (≈ 1.35 µg/mL) | 83.6 µM
6 | CCC(C)NC(=O)c1ccc(NC(=O)C2(c3ccccc3)CCCC2)cc1 (stereo unspecified) | > 100 µM | 12.5 µM (≈ 4.56 µg/mL) | > 50 µM | > 50 µM | > 50 µM | > 50 µM | > 50 µM | > 50 µM | > 50 µM | > 50 µM | > 50 µM | > 50 µM | > 50 µM | > 50 µM | > 50 µM | > 50 µM | > 100 µM | > 100 µM
7 | CC(C)=CCC/C(C)=C\CNCCNC1C2CC3CC(C2)CC1C3 (stereo unspecified) | 5.3 µM (≈ 1.75 µg/mL) | 0.39 µM (≈ 0.129 µg/mL) | 0.78 µM (≈ 0.258 µg/mL) | 0.78 µM (≈ 0.258 µg/mL) | 1.2 µM (≈ 0.397 µg/mL) | 1.2 µM (≈ 0.397 µg/mL) | 0.6 µM (≈ 0.198 µg/mL) | 1.2 µM (≈ 0.397 µg/mL) | 0.39 µM (≈ 0.129 µg/mL) | 0.6 µM (≈ 0.198 µg/mL) | 0.39 µM (≈ 0.129 µg/mL) | 0.78 µM (≈ 0.258 µg/mL) | > 50 µM | > 50 µM | > 50 µM | > 50 µM | 1.24 µM (≈ 0.41 µg/mL) | 7.1 µM
8 | COc1cccc(-c2nc3c(N4CCCC4)cccc3n2CC2CCCN2)n1 (stereo unspecified) | 80.6 µM (≈ 30.4 µg/mL) | 4.7 µM (≈ 1.77 µg/mL) | 4.7 µM (≈ 1.77 µg/mL) | 9.4 µM (≈ 3.55 µg/mL) | 9.4 µM (≈ 3.55 µg/mL) | 6.25 µM (≈ 2.36 µg/mL) | 25 µM (≈ 9.44 µg/mL) | 37 µM (≈ 14 µg/mL) | 25 µM (≈ 9.44 µg/mL) | 50 µM (≈ 18.9 µg/mL) | 37 µM (≈ 14 µg/mL) | 9.4 µM (≈ 3.55 µg/mL) | 12.5 µM (≈ 4.72 µg/mL) | 25 µM (≈ 9.44 µg/mL) | > 50 µM | > 50 µM | 38.5 µM (≈ 14.5 µg/mL) | 25 µM
9 | N#Cc1ccc(-c2ccc(OCC(N)=O)cc2)cc1 | 13.7 µM (≈ 3.46 µg/mL) | 4.7 µM (≈ 1.19 µg/mL) | 4.7 µM (≈ 1.19 µg/mL) | 37 µM (≈ 9.33 µg/mL) | > 50 µM | 50 µM (≈ 12.6 µg/mL) | 25 µM (≈ 6.31 µg/mL) | 50 µM (≈ 12.6 µg/mL) | 12.5 µM (≈ 3.15 µg/mL) | 50 µM (≈ 12.6 µg/mL) | 12.5 µM (≈ 3.15 µg/mL) | ≥ 50 µM | 25 µM (≈ 6.31 µg/mL) | 25 µM (≈ 6.31 µg/mL) | > 50 µM | > 50 µM | 23.2 µM (≈ 5.86 µg/mL) | > 100 µM
10 | Cc1cc(O)nc(-n2nc(C)cc2C)n1 | > 43.3 µM | 1.56 µM (≈ 0.319 µg/mL) | 4.7 µM (≈ 0.96 µg/mL) | 37 µM (≈ 7.56 µg/mL) | 50 µM (≈ 10.2 µg/mL) | 50 µM (≈ 10.2 µg/mL) | 25 µM (≈ 5.11 µg/mL) | > 50 µM | 50 µM (≈ 10.2 µg/mL) | > 50 µM | 25 µM (≈ 5.11 µg/mL) | 25 µM (≈ 5.11 µg/mL) | 6.25 µM (≈ 1.28 µg/mL) | 12.5 µM (≈ 2.55 µg/mL) | 25 µM (≈ 5.11 µg/mL) | 12.5 µM (≈ 2.55 µg/mL) | > 100 µM | 60.7 µM
11 | O=C(C1CCN(c2cc(-n3cccc3)ncn2)CC1)N1CCc2ccccc2C1 | 7.62 µM (≈ 2.95 µg/mL) | 0.39 µM (≈ 0.151 µg/mL) | 0.6 µM (≈ 0.232 µg/mL) | 0.78 µM (≈ 0.302 µg/mL) | 1.56 µM (≈ 0.604 µg/mL) | 1.56 µM (≈ 0.604 µg/mL) | 2.3 µM (≈ 0.891 µg/mL) | 2.3 µM (≈ 0.891 µg/mL) | 3.13 µM (≈ 1.21 µg/mL) | 3.13 µM (≈ 1.21 µg/mL) | 3.13 µM (≈ 1.21 µg/mL) | 3.13 µM (≈ 1.21 µg/mL) | 12.5 µM (≈ 4.84 µg/mL) | 50 µM (≈ 19.4 µg/mL) | > 50 µM | > 50 µM | 7.41 µM (≈ 2.87 µg/mL) | > 100 µM
12 | Cc1cc(NCCc2ccccc2)nc(NC(=N)Nc2ccc(Cl)cc2)n1 | 2.77 µM (≈ 1.06 µg/mL) | 0.78 µM (≈ 0.297 µg/mL) | 0.78 µM (≈ 0.297 µg/mL) | 1.2 µM (≈ 0.457 µg/mL) | 1.56 µM (≈ 0.594 µg/mL) | 2.3 µM (≈ 0.876 µg/mL) | 1.2 µM (≈ 0.457 µg/mL) | 1.2 µM (≈ 0.457 µg/mL) | 0.6 µM (≈ 0.229 µg/mL) | 0.78 µM (≈ 0.297 µg/mL) | 0.6 µM (≈ 0.229 µg/mL) | 0.78 µM (≈ 0.297 µg/mL) | 3.12 µM (≈ 1.19 µg/mL) | 3.12 µM (≈ 1.19 µg/mL) | 6.25 µM (≈ 2.38 µg/mL) | 3.12 µM (≈ 1.19 µg/mL) | 1.15 µM (≈ 0.438 µg/mL) | 6.5 µM
